Laboratory results from patent publication US11254686B1 (Corvus Pharmaceuticals, Inc., priority 2017, dated 2022).
Like-named read-outs stand apart in the source and are kept apart here.

How the values were obtained:
CYP3A4 = CYP3A4 (Homo sapiens (Human), UniProt P08684); assay: CYP450 inhibition at 10 μM, CYP3A4; format: in vitro ADME; conditions: human, 10 μM, read-out: CYP 450 % INH @ 10 μM
adenosine A2B receptor = adenosine A2B receptor (Homo sapiens (Human), UniProt P29275); assay: Adenosine receptor activity assay (Table 1), A2B activity; format: biochemical; conditions: for IC50: read-out: Ave A2B cAMP IC50
Chain of adenosine A2B receptor (P29275 whole entry): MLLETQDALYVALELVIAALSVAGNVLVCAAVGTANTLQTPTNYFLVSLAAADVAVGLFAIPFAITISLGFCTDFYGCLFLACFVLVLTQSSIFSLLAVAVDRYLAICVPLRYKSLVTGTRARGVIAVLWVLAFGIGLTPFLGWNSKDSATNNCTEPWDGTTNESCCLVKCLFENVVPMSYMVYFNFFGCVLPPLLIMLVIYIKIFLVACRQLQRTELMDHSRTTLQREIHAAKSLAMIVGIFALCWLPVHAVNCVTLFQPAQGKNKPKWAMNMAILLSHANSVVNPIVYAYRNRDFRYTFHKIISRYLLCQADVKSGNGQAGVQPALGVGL

[1] = Hepatocyte (Hep) intrinsic clearance, human; format: in vitro ADME; conditions: hepatocytes
adenosine A3 receptor [2] = molecular target: T1, adenosine A3 receptor (Homo sapiens (Human), UniProt P0DMS8); assay: A3 cAMP IC50 assay (Table 1); format: biochemical
T1 sequence (P0DMS8 whole entry): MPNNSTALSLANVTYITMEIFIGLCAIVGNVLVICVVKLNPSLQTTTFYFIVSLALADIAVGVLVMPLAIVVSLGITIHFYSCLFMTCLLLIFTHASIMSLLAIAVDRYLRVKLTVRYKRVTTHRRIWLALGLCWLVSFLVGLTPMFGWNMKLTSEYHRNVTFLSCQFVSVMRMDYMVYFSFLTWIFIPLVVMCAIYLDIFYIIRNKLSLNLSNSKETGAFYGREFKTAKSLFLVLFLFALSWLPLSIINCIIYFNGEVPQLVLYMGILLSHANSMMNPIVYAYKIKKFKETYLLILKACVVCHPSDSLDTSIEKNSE

adenosine A1 receptor [3] = molecular target: T2, adenosine A1 receptor (Homo sapiens (Human), UniProt P30542); assay: A1 cAMP IC50 assay (Table 1); format: biochemical
T2 sequence (P30542 whole entry): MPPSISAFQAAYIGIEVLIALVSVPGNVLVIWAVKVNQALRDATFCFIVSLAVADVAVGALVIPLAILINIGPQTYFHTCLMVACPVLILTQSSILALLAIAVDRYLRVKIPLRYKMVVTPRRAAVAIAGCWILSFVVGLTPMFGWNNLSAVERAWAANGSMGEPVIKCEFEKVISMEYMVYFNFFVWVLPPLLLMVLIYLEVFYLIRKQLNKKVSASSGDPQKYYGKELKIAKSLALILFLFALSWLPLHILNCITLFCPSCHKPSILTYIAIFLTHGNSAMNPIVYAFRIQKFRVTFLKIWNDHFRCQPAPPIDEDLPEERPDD

[4] = Hepatocyte (Hep) intrinsic clearance, rat; format: in vitro ADME; conditions: hepatocytes
adenosine A2A receptor = adenosine A2A receptor (Homo sapiens (Human), UniProt P29274); assay: Adenosine receptor activity assay (Table 1), A2A activity; format: biochemical; conditions: read-out: Ave A2A cAMP IC50
Chain of adenosine A2A receptor (P29274 whole entry): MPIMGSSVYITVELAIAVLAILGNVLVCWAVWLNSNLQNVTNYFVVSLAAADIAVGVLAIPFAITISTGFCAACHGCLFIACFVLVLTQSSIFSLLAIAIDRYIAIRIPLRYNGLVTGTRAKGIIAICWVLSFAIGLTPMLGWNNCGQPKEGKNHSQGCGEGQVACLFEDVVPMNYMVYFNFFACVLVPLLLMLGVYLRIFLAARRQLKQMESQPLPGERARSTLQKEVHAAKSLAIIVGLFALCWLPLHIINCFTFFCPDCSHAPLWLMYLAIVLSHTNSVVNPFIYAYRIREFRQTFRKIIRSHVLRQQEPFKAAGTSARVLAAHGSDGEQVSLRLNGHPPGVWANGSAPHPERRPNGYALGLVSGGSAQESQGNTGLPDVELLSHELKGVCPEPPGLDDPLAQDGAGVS

adenosine A3 receptor [5] = molecular target: T1, adenosine A3 receptor; assay: Adenosine receptor activity assay (Table 1), A3 cAMP; format: biochemical
adenosine A1 receptor [6] = molecular target: T2, adenosine A1 receptor; assay: Adenosine receptor activity assay (Table 1), A1 cAMP; format: biochemical
[7] = A2A activity to A2B activity (A2A/A2B)
[8] = A2A activity to the A2B activity, A2A/A2B

Chain of CYP3A4 (P08684 whole entry): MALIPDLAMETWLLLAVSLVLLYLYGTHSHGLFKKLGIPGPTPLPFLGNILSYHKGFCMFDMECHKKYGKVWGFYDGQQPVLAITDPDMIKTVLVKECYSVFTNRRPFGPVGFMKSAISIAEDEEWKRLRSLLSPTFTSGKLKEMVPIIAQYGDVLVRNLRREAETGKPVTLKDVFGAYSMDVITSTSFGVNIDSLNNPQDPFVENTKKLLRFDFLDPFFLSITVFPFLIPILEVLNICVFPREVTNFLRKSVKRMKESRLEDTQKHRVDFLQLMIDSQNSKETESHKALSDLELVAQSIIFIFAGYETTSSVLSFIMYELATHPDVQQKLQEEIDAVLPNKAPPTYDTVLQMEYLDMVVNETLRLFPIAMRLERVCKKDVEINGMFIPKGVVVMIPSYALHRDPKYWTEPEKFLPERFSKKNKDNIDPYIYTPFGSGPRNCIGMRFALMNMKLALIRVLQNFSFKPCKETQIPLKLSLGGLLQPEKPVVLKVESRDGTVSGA

Row | Compound | inhibition at 10 µM (CYP3A4) | Ratio (adenosine A2B receptor; [7]) | IC50 (adenosine A2B receptor) | hepatocyte CLint [1] | IC50 (adenosine A3 receptor [2]) | IC50 (adenosine A1 receptor [3]) | hepatocyte CLint [4] | IC50 (adenosine A2A receptor) | Ratio (adenosine A2B receptor; [8]) | IC50 (adenosine A2B receptor; cAMP) | IC50 (adenosine A3 receptor [5]) | IC50 (adenosine A1 receptor [6]) | IC50 (adenosine A2A receptor; cAMP)
1 | C[C@@H]1CCN(C(=O)c2nc(N[C@@H](C)c3ccccn3)nc3ccsc23)C1 [Example Z86, ((R)-3-Methylpyrrolidin-1-yl)(2-(((S)-1-(pyridin-2-yl)ethyl)amino)thieno[3,2-d]pyrimidin-4-yl)methanone] | 19% | 4.25 | 10 to 50 nM | 11.8 µL/min/1e6 cells | > 500 nM | > 500 nM | 55.1 µL/min/1e6 cells | 50 to 100 nM |  |  |  |  | 
2 | C[C@H]1CCN(C(=O)c2nc(N[C@@H](C)c3ccccn3)nc3ccsc23)C1 [Example Z87, ((S)-3-Methylpyrrolidin-1-yl)(2-(((S)-1-(pyridin-2-yl)ethyl)amino)thieno[3,2-d]pyrimidin-4-yl)methanone] | 19.9% | 11.70 | 10 to 50 nM | 13.3 µL/min/1e6 cells | > 500 nM | > 500 nM | 57.6 µL/min/1e6 cells | 100 to 500 nM |  |  |  |  | 
3 | C[C@H](Nc1nc(C(=O)N2CCC2)c2sccc2n1)c1ccccn1 [Example Z90, (S)-Azetidin-1-yl(2-((1-(pyridin-2-yl)ethyl)amino)thieno[3,2-d]pyrimidin-4-yl)methanone] | 0% | 18.88 | < 10 nM | 6.32 µL/min/1e6 cells | > 500 nM | > 500 nM | 33.3 µL/min/1e6 cells | 50 to 100 nM |  |  |  |  | 
4 | Cc1ncccc1CNc1nc(C(=O)N2CCCC2)c2sccc2n1 [Example Z91, (2-(((2-Methylpyridin-3-yl)methyl)amino)thieno[3,2-d]pyrimidin-4-yl)(pyrrolidin-1-yl)methanone] | 19% | 16.69 | 10 to 50 nM | 7.19 µL/min/1e6 cells |  |  | 47.1 µL/min/1e6 cells | 100 to 500 nM |  |  |  |  | 
5 | COC1CN(C(=O)c2nc(N[C@@H](C)c3ccccn3)nc3ccsc23)C1 [Example Z108, (S)-(3-Methoxyazetidin-1-yl)(2-((1-(pyridin-2-yl)ethyl)amino)thieno[3,2-d]pyrimidin-4-yl)methanone] | 31% | 10.93 | 10 to 50 nM | 5.66 µL/min/1e6 cells | > 500 nM | > 500 nM | 23.4 µL/min/1e6 cells |  |  |  |  |  | 
6 | O=C(c1nc(NCc2cccc(Cl)c2)nc2ccsc12)N1CCC1 [Example Z121, Azetidin-1-yl(2-((3-chlorobenzyl)amino)thieno[3,2-d]pyrimidin-4-yl)methanone] | 48.6% |  | 10 to 50 nM | 85.1 µL/min/1e6 cells |  |  | 249 µL/min/1e6 cells | 100 to 500 nM |  |  |  |  | 
7 | O=C(c1nc(NCc2cccc(Cl)c2)nc2ccsc12)N1CC(O)C1 [Example Z122, (2-((3-Chlorobenzyl)amino)thieno[3,2-d]pyrimidin-4-yl)(3-hydroxyazetidin-1-yl)methanone] | 22.9% |  | 10 to 50 nM | 68.4 µL/min/1e6 cells |  |  | 112 µL/min/1e6 cells | 100 to 500 nM |  |  |  |  | 
8 | C[C@H](Nc1nc(C(=O)N2CC(NC(=O)C3(C#N)CC3)C2)c2sccc2n1)c1cncc(F)c1 [Example Z636, (S)-1-Cyano-N-(1-(2-((1-(5-fluoropyridin-3-yl)ethyl)amino)thieno[3,2-d]pyrimidine-4-carbonyl)azetidin-3-yl)cyclopropane-1-carboxamide] |  |  |  |  |  |  |  |  | 3.72 | 10 to 50 nM | > 500 nM | > 500 nM | 50 to 100 nM
9 | C[C@H](Nc1nc(C(=O)N2CC(NC(=O)C34CCC(CC3)CC4)C2)c2sccc2n1)c1cncc(F)c1 [Example Z637, (S)—N-(1-(2-((1-(5-Fluoropyridin-3-yl)ethyl)amino)thieno[3,2-d]pyrimidine-4-carbonyl)azetidin-3-yl)bicyclo[2.2.2]octane-1-carboxamide] |  |  |  |  |  |  |  |  | 0.13 | 10 to 50 nM | 10 to 50 nM | > 500 nM | < 10 nM
10 | C[C@H](Nc1nc(C(=O)N2CC(NC(=O)C3CC(C)(C)C3)C2)c2sccc2n1)c1cncc(F)c1 [Example Z638, (S)—N-(1-(2-((1-(5-Fluoropyridin-3-yl)ethyl)amino)thieno[3,2-d]pyrimidine-4-carbonyl)azetidin-3-yl)-3,3-dimethylcyclobutane-1-carboxamide] |  |  |  |  |  |  |  |  | 0.52 | 10 to 50 nM | 50 to 100 nM | > 500 nM | < 10 nM
11 | C[C@H](Nc1nc(C(=O)N2CC(NC(=O)[C@H]3CC[C@H](C)CC3)C2)c2sccc2n1)c1cncc(F)c1 [Example Z639, Trans-N-(1-(2-(((S)-1-(5-fluoropyridin-3-yl)ethyl)amino)thieno[3,2-d]pyrimidine-4-carbonyl)azetidin-3-yl)-4-methylcyclohexane-1-carboxamide] |  |  |  |  |  |  |  |  | 0.98 | 10 to 50 nM | 100 to 500 nM | > 500 nM | 10 to 50 nM
12 | C[C@H](Nc1nc(C(=O)N2CC(NC(=O)C3CCC(F)(F)CC3)C2)c2sccc2n1)c1cncc(F)c1 [Example Z640, (S)-4,4-Difluoro-N-(1-(2-((1-(5-fluoropyridin-3-yl)ethyl)amino)thieno[3,2-d]pyrimidine-4-carbonyl)azetidin-3-yl)cyclohexane-1-carboxamide] |  |  |  |  |  |  |  |  | 1.24 | 10 to 50 nM | 100 to 500 nM | > 500 nM | 10 to 50 nM
13 | C[C@H](Nc1nc(C(=O)N2CC(NC(=O)C3(C)CC3)C2)c2sccc2n1)c1cncc(Cl)c1 [Example Z641, (S)—N-(1-(2-((1-(5-Chloropyridin-3-yl)ethyl)amino)thieno[3,2-d]pyrimidine-4-carbonyl)azetidin-3-yl)-1-methylcyclopropane-1-carboxamide] |  |  |  |  |  |  |  |  | 1.81 | < 10 nM | 100 to 500 nM | > 500 nM | 10 to 50 nM
14 | C[C@H](Nc1nc(C(=O)N2CC(NC(=O)C(C)(C)C)C2)c2sccc2n1)c1cncc(Cl)c1 [Example Z642, (S)—N-(1-(2-((1-(5-Chloropyridin-3-yl)ethyl)amino)thieno[3,2-d]pyrimidine-4-carbonyl)azetidin-3-yl)pivalamide] |  |  |  |  |  |  |  |  | 0.57 | 10 to 50 nM | 100 to 500 nM | > 500 nM | < 10 nM
15 | C[C@H](Nc1nc(C(=O)N2CC(NC(=O)C3(C(F)(F)F)CCC3)C2)c2sccc2n1)c1cncc(F)c1 [Example Z643, (S)—N-(1-(2-((1-(5-Fluoropyridin-3-yl)ethyl)amino)thieno[3,2-d]pyrimidine-4-carbonyl)azetidin-3-yl)-1-(trifluoromethyl)cyclobutane-1-carboxamide] |  |  |  |  |  |  |  |  | 0.19 | 10 to 50 nM | 100 to 500 nM | > 500 nM | < 10 nM
16 | C[C@H](Nc1nc(C(=O)N2CC(NC(=O)C3(C)CCC3)C2)c2sccc2n1)c1cncc(Cl)c1 [Example Z644, (S)—N-(1-(2-((1-(5-Chloropyridin-3-yl)ethyl)amino)thieno[3,2-d]pyrimidine-4-carbonyl)azetidin-3-yl)-1-methylcyclobutane-1-carboxamide] |  |  |  |  |  |  |  |  | 0.59 | 10 to 50 nM | 100 to 500 nM | > 500 nM | < 10 nM
17 | C[C@H](Nc1nc(C(=O)N2CC(NC(=O)c3ccc(-c4ccccc4)cc3)C2)c2sccc2n1)c1cncc(F)c1 [Example Z645, (S)—N-(1-(2-((1-(5-Fluoropyridin-3-yl)ethyl)amino)thieno[3,2-d]pyrimidine-4-carbonyl)azetidin-3-yl)-[1,1′-biphenyl]-4-carboxamide] |  |  |  |  |  |  |  |  | 0.48 | 50 to 100 nM | 50 to 100 nM | > 500 nM | 10 to 50 nM
18 | Cc1cc(C)cc(C(=O)NC2CN(C(=O)c3nc(N[C@@H](C)c4cncc(F)c4)nc4ccsc34)C2)c1 [Example Z646, (S)—N-(1-(2-((1-(5-Fluoropyridin-3-yl)ethyl)amino)thieno[3,2-d]pyrimidine-4-carbonyl)azetidin-3-yl)-3,5-dimethylbenzamide] |  |  |  |  |  |  |  |  | 0.65 | 10 to 50 nM | 100 to 500 nM | > 500 nM | 10 to 50 nM
19 | Cc1cc(C(=O)NC2CN(C(=O)c3nc(N[C@@H](C)c4cncc(F)c4)nc4ccsc34)C2)c(C)o1 [Example Z647, (S)—N-(1-(2-((1-(5-Fluoropyridin-3-yl)ethyl)amino)thieno[3,2-d]pyrimidine-4-carbonyl)azetidin-3-yl)-2,5-dimethylfuran-3-carboxamide] |  |  |  |  |  |  |  |  | 1.16 | 10 to 50 nM | 100 to 500 nM | > 500 nM | 10 to 50 nM
20 | (S)—N-(1-(2-((1-(5-Fluoropyridin-3-yl)ethyl)amino)-7-methylthieno[3,2-d]pyrimidine-4-carbonyl)azetidin-3-yl)pivalamide [Example Z624] |  |  |  |  |  |  |  |  | 0.18 | 10 to 50 nM | 100 to 500 nM | > 500 nM | < 10 nM
21 | N-(tert-Butoxy)-1-(2-(((S)-1-(5-fluoropyridin-3-yl)ethyl)amino)-6-methylthieno[3,2-d]pyrimidine-4-carbonyl)pyrrolidine-3-carboxamide [Example Z602] |  |  |  |  |  |  |  |  | 0.49 | 10 to 50 nM | 100 to 500 nM | > 500 nM | < 10 nM
